Data reported in paper PMC10535864, “Novel Aminopyrimidine-2,4-diones, 2-Thiopyrimidine-4-ones, and 6-Arylpteridines as Dual-Target Inhibitors of BRD4/PLK1: Design, Synthesis, Cytotoxicity, and Computational Studies” (Pharmaceuticals, 2023).
“And” between values parts separate entries of the source, which are not always exact repeats. Equal entries are not always repeated.

Columns and labels:
Format in all cases: cell-based
[1] = test system: Bcl-2 gene in MDA-MB-231 cells; assay: RT-PCR gene expression, Bcl-2; settings: 48 h treatment, control = 1
Protocol: (§1) As well, there was an apparent increase in caspase-3, showing 3.9-fold more expression than in control cells.
(§2) Fluorometric analysis was used to gauge the level of these genes’ expression. The procedure for the used kit was carried out in accordance with the manufacturer’s instructions, which are detailed in the Supplementary file. […]
(§3) […] at pH 7.4). The flow cytometer was then used to examine the cells […]
(§4) 1.4.Estimation of apoptotic and anti-apoptotic gene markers […]
(§5) such as Bax and caspase-3, as well as anti-apoptotic genes such as Bcl-2, was studied using the BIORAD iScriptTM One-Step RT-PCR kit with SYBR® Green. MDA-MB-231 cells were cultured before being treated for 48 hours […]
(§6) Fluorometric analysis was used to gauge the level of these genes' expression. The procedure for the used kit was carried out in accordance with the manufacturer's instructions, which are detailed as follows:
(§7) 1.4.1. RNA isolation and reverse transcription m RNA isolation iscarried out using an RNeasy extraction kit,up to 1 x 10^7 cells, depending on the cell line. Cells are disrupted in RNeasy Lysis Buffer (RLT buffer), homogenized, then ethanol is added to the lysate, creating conditions that promote selective binding of RNA to the RNeasy membrane. […]

[2] = test system: BAX gene in MDA-MB-231 cells; assay: RT-PCR gene expression, BAX; settings: 48 h treatment, control = 1
Protocol: as §1, §2, §3, §4, §5, §6, §7

MDA-MB-231 cells [3] = assay: Cell cycle analysis, propidium iodide flow cytometry; settings: treated at IC50 concentration, 48 h
From the text: (§8) The results are indicated as a dot plot graph with four quadrant images (Figure 5B). […] However, both compounds also raised the necrotic percent by 1.8- and 2.8-fold, respectively, compared to non-treated cells. Overall, these findings implied that compound 7 could exert anticancer activity by producing cell cycle arrest at the G2/M phase and inducing apoptosis.
(§9) An Epics XL-MCL™ Flow Cytometer and Flowing software 2012 were used to count and analyze stained cells. The Supplementary file contains detailed descriptions of the flow cytometric analysis of cell-cycle distribution and cellular apoptosis. […]
(§10) 1.3.Cell cycle and apoptosis screening […]
(§11) investigated using an Ab-139418 propidium iodide flow cytometry kit and an Annexin-V assay and biparametric cytofluorimetric analysis, respectively, as instructed by the manufacturer. IC50s of both 7 and […]
Cytometer and Flowing software were used to count and analyze stained cells. The Supplementary file contains detailed descriptions of the flow cytometric analysis of cell-cycle distribution and cellular apoptosis.
1.3.1. Cell cycle analysis […]
a six-well plate containing MDA-MB-231 breast cancer cells was seeded with 1 X 10^5 cells per well and then […]
Following that, cells were gathered and fixed in ice-cold 70% ethanol at 4 °C for 12 hours. The cells were then rinsed with cold Phosphate Buffer Saline (PBS) and incubated for 30 minutes at 37°C in 0.5 mL of PBS after the ethanol was removed. Propidium iodide was used to stain the cells for 30 min while they were in the dark. DNA content was determined using a flow cytometer. […]

MDA-MB-231 cells [4] = assay: Apoptosis screening, annexin V-FITC/PI flow cytometry; settings: compared to non-treated control MDA-MB-231 cells
From the text: as §8, §9, §10, §11
Cytometer and Flowing software were used to count and analyze stained cells. The Supplementary file contains detailed descriptions of the flow cytometric analysis of cell-cycle distribution and cellular apoptosis. […]
1.3.2. Apoptosis screening […]
plate received 1 X 105 conc. breast cancer (MDA-MB-231) cells that were then incubated for 24 hours. The cells […]
with PBS, and stained for 15 min at room temperature in the dark with annexin V-FITC and PI in binding buffer (10 […]
µM HEPES, 140 µM NaCl, and 2.5 µM CaCl2 at pH 7.4). […]
high-quality RNA iseluted in RNase-free water.
1.4.2. Master mix preparation
All the following reagents were mixed together to give a totalvolume (50 μL). 2X SYBR® Green RT-PCR reaction mixture (25 μL), forward primer (10 μM) (1.5 μL), reverse primer (10 μM) (1.5 μL), nuclease-free H2O (11 μL), RNA template (1 pg to 100 ng totalRNA) (10 μL) and iScript reverse transcriptase for One-Step RT-PCR (1 μL).
1.4.3. Amplification protocol
Incubate complete reaction mixture in a real-time thermal detection system (Rotorgene) as follows: cDNA synthesis:
10 min at 50 °C, iScript reverse transcriptase inactivation: 5 min at 95 °C, polymerase chain reaction (PCR) cycling and detection (30–45 cycles): 10 s at 95 °C and 30 s at 55 °C to 60 °C (data collection step) and melt curve analysis:
1 min at95 °C and 1 min at55 °C and 10 s at55 °C (80 cycles, increasing each by 0.5 °C each cycle).

[5] = test system: caspase-3 gene in MDA-MB-231 cells; assay: RT-PCR gene expression, caspase-3; settings: 48 h treatment, control = 1
Protocol: as §1, §2, §3, §4, §5, §6, §7

Cn1c(SCC(=O)c2ccccc2)nc(=O)c(/N=C(/CBr)c2ccccc2)c1N [Compound 7, (E)-6-Amino-5-((2-bromo-1-phenylethylidene)amino)-1-methyl-2-((2-oxo-2-phenylethyl)thio)pyrimidin-4(1H)-one] was tested, and the “Gene expression Bcl-2 (anti-apoptotic gene)” value [1] was 0.30 fold and 0.301 fold, the “Gene expression BAX (apoptotic gene)” value [2] was 7.3 fold and 7.325 fold and the “DNA content % at cell cycle phase %G2/M” value (MDA-MB-231 cells [3]; control 9.19%) was 22.36%. The “DNA content % at cell cycle phase %S” value (MDA-MB-231 cells [3]; control 29.53%) was 28.02%, the “DNA content % at cell cycle phase %G0/G1” value (MDA-MB-231 cells [3]; control 61.28%) was 49.62% and the “increase in early apoptosis” value (MDA-MB-231 cells [4]) was 58.8 fold. The “increase in total apoptosis” value (MDA-MB-231 cells [4]) was 19.3 fold, the “rise of necrotic percent” value (MDA-MB-231 cells [4]) was 1.8 fold and the “Gene expression Caspase-3 (apoptotic gene)” value [5] was 3.9 fold and 3.904 fold.
